Bounds are passed on as bounds.

This is an account of results in patent US20080280891A1, “Anti-cancer agents and uses thereof” (Locus Pharmaceuticals, Inc., priority 2006, published 2008).

In assay [1] the test system is MCF-7 breast cancer cells. In words: Cell cycle assay (Example 164), G2/M block in MCF-7 cells. The assay is classed as cell-based. As to conditions: 24 h, flow cytometry (PI); for activation at 0.1 µM: Homo sapiens, MCF7, Table 4; for MCF-7 G2/M Block 1 μM: Table 3. As for the experimental part: (§1) The adherent MCF-7 breast cancer cells and NCI-H522 non small cell lung cancer cells were grown and maintained in EMEM cell culture media containing 10% fetal calf serum.
(§2) Cells were allowed to adhere for 24 hrs. After adherence, cell culture media was changed to that containing 0.5% FCS. Thirty minutes post-media change, test compounds were added at a concentration of either 1.0 or 0.1 μM (as specified in the Tables). Twenty-four hours after test agent addition, cells were analyzed for cell cycle status as described below.
(§3) Cell cycle status was analyzed by flow cytometry. Briefly, cells were collected and washed with FACs buffer (Pharmingen) and resuspended and fixed in 1 mL of 80% ethanol for 1 hr. Cells were washed with FACs buffer and resuspended in propidium iodide(PI)/RNase staining buffer (Pharmingen). PI is a fluorescent dye that labels nucleic acids such as DNA. The fluorescence within a cell (in the presence of PI) is proportional to the amount of DNA within a cell. The cell content of DNA is an indicator of status in the cell cycle. […] Cells in the S phase have DNA content that lies between these extremes.
(§4) For testing of cell cycle effects of test agents the percentage of cells within the G1 and G2/M phase were measured.

The subject of assay [2] is NCI-H522 non small cell lung cancer cells. Kind of assay: Cell cycle assay (Example 164), G2/M block in NCI-H522 cells. Type of assay: cell-based. Conditions: Homo sapiens, 0.1 μM, 24 h, flow cytometry (PI). As for the experimental part:
as §1, §2, §3, §4
For orientation: In flow cytometry, cells or beads pass a laser one at a time.

As for `O=C(CO)Nc1cc(C(=O)c2ccnc(N3CCOCC3)c2)cc(-c2cccc3[nH]ccc23)c1` [2-Hydroxy-N-[3-(1H-indol-4-yl)-5-(2-morpholin-4-yl-pyridine-4-carbonyl)-phenyl]-acetamide], the activation at 0.1 µM in assay [1] and in assay [2] (Table 4) was at least 50% in each case.
As to `COc1cc(C(=O)c2cc(C(N)=O)cc(-c3cccc4[nH]ccc34)c2)ccn1` [3-(1H-Indol-4-yl)-5-(2-methoxy-pyridine-4-carbonyl)-benzamide], the activation at 0.1 µM in assay [1] and in assay [2] (Table 4) was at least 50% each time.
With `Nc1nccc(-c2cc(O)cc(-c3cccc4[nH]ccc34)c2)n1` [3-(2-Amino-pyrimidin-4-yl)-5-(1H-indol-4-yl)-phenol], the activation at 0.1 µM in assay [1] is under 50%; in assay [2] (Table 4), at least 50%.
In the case of `CN(C)c1ncccc1Nc1cc(O)cc(-c2cccc3[nH]ccc23)c1` [3-(2-Dimethylamino-pyridin-3-ylamino)-5-(1H-indol-4-yl)-phenol], in assay [1], the “MCF-7 G2/M Block 1 μM” value is “Y (Y indicates a 50% or greater increase in the number of cells in the G2/M phase, as compared to control)”. This compound also had an activation at 0.1 µM in assay [2] (Table 3) of at least 50%.
On to `CCc1ncccc1Nc1cc(O)cc(-c2cccc3[nH]ccc23)c1` [3-(2-Ethyl-pyridin-3-ylamino)-5-(1H-indol-4-yl)-phenol], for which the “MCF-7 G2/M Block 1 μM” value in assay [1] is “Y (Y indicates a 50% or greater increase in the number of cells in the G2/M phase, as compared to control)”. The same compound came in with an activation at 0.1 µM in assay [2] (Table 3) of at least 50%.
As for `Nc1nccc(-c2cc(Br)cc(-c3cccc4[nH]ccc34)c2)n1` [4-[3-Bromo-5-(1H-indol-4-yl)-phenyl]-pyrimidin-2-ylamine], the activation at 0.1 µM in assay [1] and in assay [2] (Table 4) was at least 50% throughout.
Take `N#Cc1ccc(Nc2cc(O)cc(-c3cccc4[nH]ccc34)c2)cc1` [4-[3-Hydroxy-5-(1H-indol-4-yl)-phenylamino]-benzonitrile]: the “MCF-7 G2/M Block 1 μM” value in assay [1] is “N (N indicates a less than 50% increase at this dose)”. The same compound yielded an activation at 0.1 µM in assay [2] (Table 3) of at least 50%.
Consider `CS(=O)(=O)Nc1cc(-c2cc(C(F)(F)F)ccc2F)cc(-c2cccc3[nH]ccc23)c1` [N-[2′-fluoro-5-(1H-indol-4-yl)-5′-trifluoromethyl-biphenyl-3-yl]-methanesulfonamide], for which the activation at 0.1 µM in assay [1] and in assay [2] (Table 4) was at least 50% in each case.
Consider `COc1cc(C(=O)c2cc(NS(C)(=O)=O)cc(-c3cccc4[nH]ccc34)c2)cc(C)n1` [N-[3-(1H-Indol-4-yl)-5-(2-methoxy-6-methyl-pyridine-4-carbonyl)-phenyl]-methanesulfonamide], for which the activation at 0.1 µM in assay [1] and in assay [2] (Table 4) was at least 50% each time.
Consider `COc1cc(C(=O)c2cc(NS(C)(=O)=O)cc(-c3cccc4[nH]ccc34)c2)ccn1` [N-[3-(1H-Indol-4-yl)-5-(2-methoxy-pyridine-4-carbonyl)-phenyl]-methanesulfonamide], for which the “MCF-7 G2/M Block 1 μM” value in assay [1] is reported as “Y (Y indicates a 50% or greater increase in the number of cells in the G2/M phase, as compared to control)”. This compound returned an activation at 0.1 µM in assay [2] (Table 3) of at least 50%.
`CC(=O)Nc1cc(C(=O)c2cc(C)nc(N3CCOCC3)c2)cc(-c2cccc3[nH]ccc23)c1` [N-[3-(1H-Indol-4-yl)-5-(2-methyl-6-morpholin-4-yl-pyridine-4-carbonyl)-phenyl]-acetamide]: the activation at 0.1 µM in assay [1] and in assay [2] (Table 4) was at least 50% each time.
Turning to `Cc1cc(C(=O)c2cc(NS(C)(=O)=O)cc(-c3cccc4[nH]ccc34)c2)cc(N2CCOCC2)n1` [N-[3-(1H-Indol-4-yl)-5-(2-methyl-6-morpholin-4-yl-pyridine-4-carbonyl)-phenyl]-methanesulfonamide], the activation at 0.1 µM in assay [1] and in assay [2] (Table 4) was at least 50% each time.
As to `CC(=O)Nc1cc(C(=O)c2ccnc(N3CCOCC3)c2)cc(-c2cccc3[nH]ccc23)c1` [N-[3-(1H-Indol-4-yl)-5-(2-morpholin-4-yl-pyridine-4-carbonyl)-phenyl]-acetamide], the activation at 0.1 µM in assay [1] and in assay [2] (Table 4) was at least 50% throughout.
